# According to ChEMBL document CHEMBL3988442, “University of Dundee, Small-Polar-MMV Screening Library” (2021):
# “And” between values parts separate entries of the source, which are not always exact repeats. Equal values may be shown once.
# Molecular target: T1, Histidine--tRNA ligase (Leishmania infantum, UniProt A4I591)
# T1 sequence (A4I591 whole entry): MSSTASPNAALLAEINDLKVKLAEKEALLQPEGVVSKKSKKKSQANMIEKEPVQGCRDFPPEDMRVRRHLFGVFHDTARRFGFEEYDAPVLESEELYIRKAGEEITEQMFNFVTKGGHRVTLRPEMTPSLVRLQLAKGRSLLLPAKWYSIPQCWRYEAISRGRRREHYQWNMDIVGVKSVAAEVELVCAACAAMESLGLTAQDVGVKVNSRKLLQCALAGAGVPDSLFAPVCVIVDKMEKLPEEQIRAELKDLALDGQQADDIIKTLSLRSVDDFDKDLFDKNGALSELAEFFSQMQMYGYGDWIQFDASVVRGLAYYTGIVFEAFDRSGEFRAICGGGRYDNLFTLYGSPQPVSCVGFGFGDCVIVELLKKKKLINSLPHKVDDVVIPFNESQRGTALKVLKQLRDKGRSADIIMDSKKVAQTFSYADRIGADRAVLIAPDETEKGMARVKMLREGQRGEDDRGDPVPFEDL
# Assay: Leishmania infantum Histidine tRNA synthetase (LdHisRS)
# Format: functional
row,IC50,Structure (SMILES)
1,44.8 µM and 48.7 µM,CN(Cc1ccccc1CN1CCCC1)c1ncnc2[nH]ccc12
2,95.3 µM and > 100 µM,CN(C(=O)CN1CCc2nn(C)c(=O)cc2C1)c1nccs1
3,45.7 µM and 49.5 µM,Cc1cc(O)ncc1NS(=O)(=O)c1cccc(F)c1F
4,> 100 µM,Cc1nn(CCC#N)c(C)c1[C@@H]1C=C[C@@H](NCc2cccc(Cl)c2)C1
5,35.5 µM and 34.5 µM,CC(C)c1nnc(N2C[C@@H]3CC[C@H](C2)N(Cc2ccccc2)C3)s1
6,65.4 µM and 53.4 µM,CC(C)C(C)NC(=O)Nc1cccn(C)c1=O (centres undefined)
7,63 µM and 54 µM,O=C(NCC1CC1)c1cc2c(s1)CCN2c1ncccn1
8,25.2 µM and 21.2 µM,Cc1ccccc1-c1noc(CN2CCc3nn(C)c(=O)cc3C2)n1
9,> 100 µM,COc1cccn(CC(=O)N(C)CCCOc2c(C)cccc2C)c1=O
10,28.6 µM and 46.9 µM,Cc1cs/c(=N/C(=O)c2csc(NCC(C)C)n2)[nH]1
11,59.4 µM and 27.4 µM,O=C(NCc1ccco1)[C@@H]1CC[C@@H]2[C@@H](CCN2Cc2ccc(F)cc2)O1
12,39.2 µM and 30.9 µM,NCc1ccnc(Oc2ccccc2)c1
13,> 100 µM,Cn1cc(NS(=O)(=O)c2ccc(F)c(F)c2)ccc1=O
14,29.3 µM and 30.2 µM,FC(F)(F)c1ccc(-c2cc(NC3CCNCC3)nc3[nH]ccc23)nc1
15,> 100 µM,Cc1nc(N2CCCC2)nc2c1CCN(C(=O)C1CCC1)CC2
16,8.51 µM and 8.59 µM,Cn1cc(NC(=O)N2CCN(Cc3cscn3)CC2)ccc1=O
17,> 100 µM,Cc1cc(C(=O)N2CC[C@@H](N(C)C)[C@@H]2Cc2ccccc2)no1
18,> 100 µM,O=c1c2ccccc2nc2n1C(CSc1ccc(Br)cc1)CN2 (centres undefined)
19,24.8 µM and 24.1 µM,Cc1nnc(NCC(c2ccco2)N(C)C)c(C#N)c1C (centres undefined)
20,35.7 µM and 31.2 µM,O=C(Nc1cccn(Cc2ccccc2)c1=O)c1ccncc1F
21,74.7 µM and 55.7 µM,Cc1nnc(NCCc2coc(-c3ccccc3)n2)c(C#N)c1C
22,13.6 µM and 14.1 µM,Cn1cc(NC(=O)Nc2ccccn2)cc(Cl)c1=O

row,IC50,Structure (SMILES)
1,> 100 µM,CN(C)c1ncc(-c2c(-c3ccccc3)ncn2C(CO)C(=O)O)cn1 (centres undefined)
2,36.7 µM and 33.6 µM,Cc1nccn1-c1cccc(C2CCCN(C3CCCCC3)C2)n1 (centres undefined)
3,> 100 µM and 66.9 µM,O=C(CCn1ccc2cc(Br)ccc21)NCc1ccc(C(=O)O)cc1
4,20.9 µM and 17.8 µM,CCCn1nc2c(cc1=O)CN(Cc1ccccn1)CC2
5,> 100 µM,Cc1csc(CN(C)C(C)C(=O)N2CCc3ccccc3C2)n1 (centres undefined)
6,42.4 µM and 52.8 µM,Cc1nnc(SCC(=O)c2cc3c(cc2Cl)NC(=O)C3)o1
7,> 100 µM,CC(C)c1nn(C)c(N(C)C)c1CNCc1ccccc1CN(C)C
8,23.4 µM and 28.9 µM,Cc1ccc(C)c(OC(C)C(=O)NCCNc2cccnc2)c1 (centres undefined)
9,> 100 µM,CCOc1ccc(C(=O)N(CCOC)Cc2c(C)nn(CC)c2C)o1
10,20.7 µM and 26.5 µM,O=C1CC(c2ccc(C(=O)O)cc2)c2ncn(-c3cccc(Cl)c3)c2N1 (centres undefined)
11,> 100 µM and 55.9 µM,Cc1nnc(NCCc2coc(-c3ccc(F)cc3)n2)c(C#N)c1C
12,28.7 µM and 19.6 µM,c1cncc(NCCNC2CSCCSC2)c1
13,> 100 µM,O=c1c2cnc(N3CCOCC3)nc2ccn1-c1ccccc1
14,17.7 µM and 23 µM,O=C(CCNCc1cccc(O)c1)N1CCc2sccc2C1
15,37 µM and 42.8 µM,CC(C)N(C)S(=O)(=O)c1ccc2c(c1)CCN(C(=O)c1ccccn1)C2
16,> 100 µM,Cn1nc2c(cc1=O)CN(CC(=O)Nc1cc(C(C)(C)C)no1)CC2
17,16 µM and 15.8 µM,CN1CCN(Cc2nnc(C3CCN(C(CO)CO)CC3)n2C)CC1
18,37.2 µM and 43.7 µM,COc1cccc(CN(C)C(=O)CN2CC(n3nc(C)cc3C)C2)c1
19,25 µM and 18.4 µM,Cc1cc(N2CCC(Cc3ccccc3)CC2)nc(-c2ccncc2)n1
20,6.94 µM and 5.93 µM,O=C(Nc1ccc(=O)n(Cc2ccccc2Cl)c1)C1CC1
21,6.78 µM and 9.49 µM,CC(=O)N1CCN(C(=O)CNc2ccc3ncsc3c2)CC1
22,> 100 µM,COc1cccn(CC(=O)N(C)Cc2ccoc2)c1=O

row,IC50,Structure (SMILES)
1,32.1 µM and 26.8 µM,O=C(Nc1c(N2CCCC2)cccc1N1CCCC1)c1ccccn1
2,> 100 µM,Cc1csc(N2CCN(C(=O)CCC(=O)c3ccc(C)s3)CC2)n1
3,22.3 µM and 27.2 µM,c1ccc(-n2ncc(CNCC3CCCN3c3cccnn3)n2)cc1 (centres undefined)
4,51.2 µM and 44 µM,Cc1nnc2n1CCN(C(=O)c1ccc(Cn3cccc3)cc1)C2
5,12.9 µM,COc1cccc(-c2n[nH]c3c2CN(C(=O)c2cccc(=O)[nH]2)CC3)c1
6,15 µM and 21.9 µM,O=C1CC(c2ccc(C(=O)O)cc2)c2ncn(-c3ccc(F)cc3)c2N1 (centres undefined)
7,57.7 µM and 67.2 µM,CCCn1nc2c(cc1=O)CN(Cc1nc(CCOC)no1)CC2
8,> 100 µM,CCC1CCc2c(c3ccccc3[nH]c2=O)O1 (centres undefined)
9,7.66 µM and 7.91 µM,CCC(=O)Nc1cc(Br)cn(C)c1=O
10,24.8 µM and 36.9 µM,COc1cc(CC(=O)Nc2cccc(C(=O)N(C)C)n2)ccc1C
11,23.3 µM and 15.8 µM,Fc1ccc(N2CCC3(CC2)CC(OCc2cccnc2)CO3)cc1 (centres undefined)
12,> 100 µM,CC(=O)N1CCO[C@@H]2CN(S(=O)(=O)c3ccc(C)cc3)CC[C@@H]2C1
13,22.3 µM and 17.3 µM,CCN(C(=O)c1nc2c(s1)CCCN2Cc1ccccc1)C(C)C
14,> 100 µM and 88 µM,Cc1nn(-c2ccccn2)c(C)c1[C@@H]1C=C[C@@H](NC(=O)NC(C)C)C1
15,> 100 µM,CC1=Nc2c(c(=O)[nH]n2C(C)C)C(c2ccc3c(c2)n(C)c(=O)n3C)S1 (centres undefined)
16,> 100 µM,Cn1cnnc1C1CCCN(C(=O)c2cc(C3CC3)on2)C1 (centres undefined)
17,17 µM and 23.6 µM,COc1ccc2c(c1)CC(NCc1cccc(OCC(N)=O)c1)CC2 (centres undefined)
18,> 100 µM,COc1cc(CNc2cnn(C)c2)cc2c1OCCO2
19,32.3 µM and 35.9 µM,Cc1nccn1-c1cccc(C2CCCN(C3CCCC3)C2)n1 (centres undefined)
20,> 100 µM,Cc1c(C(=O)N2CCC(O)(CN(C)C)C2)c2cc(O)ccc2n1C (centres undefined)
21,30.2 µM and 29.7 µM,NC(=O)c1ccc(N2CCCCC2)c(NC(=O)c2cc(Br)ccc2Cl)c1
22,66.8 µM and 70.3 µM,O=C(C1CCCCC1)N1C[C@@H]2CCN(c3cnccn3)C[C@@H]2C1

row,IC50,Structure (SMILES)
1,12.5 µM and 14.9 µM,CC(C)c1ccc(C(=O)O)cc1S(=O)(=O)Nc1ccc(=O)n(C)c1
2,> 100 µM,Cn1ccnc1Sc1ccc(N)cn1
3,12.7 µM and 15.3 µM,O=C1NCC(C(=O)Nc2ccc(=O)n(Cc3ccccc3Cl)c2)N1 (centres undefined)
4,58.7 µM and 38.5 µM,OC1CCCN(Cc2c(-c3ccco3)[nH]c3ncccc23)C1 (centres undefined)
5,> 100 µM,NC(=O)CN1CCN(CC2CC2)c2ccccc21
6,24.8 µM and 27.4 µM,CCCn1nc2c(cc1=O)CN(Cc1cc(C)no1)CC2
7,> 100 µM,CN(C)CCn1c(=O)oc2ccc(NC(=O)C3CCCO3)cc21 (centres undefined)
8,15.7 µM and 18.7 µM,CCc1ccc2c(C3CN(CC4CCC4)C3)ncn2c1
9,64 µM and > 100 µM,CC(=O)NCC1CCN(c2cc(C)nc(-c3ccncc3)n2)CC1
10,56 µM and 44.1 µM,Cc1nc(CN2CCCC2c2ccsc2)nc2ccccc12 (centres undefined)
11,69.8 µM and 87.5 µM,COc1ccc(-c2nc(CN3CCc4c(ncn4C)C3)cs2)cc1
12,23.3 µM and 19.8 µM,Cc1c(CN2CCOCC2)c(O)n(CCc2ccccc2)c(=O)c1C#N
13,33.6 µM and 37.3 µM,CC(C)NC(=O)C1Cc2nc(-c3ccsc3)sc2N1CC1CC1 (centres undefined)
14,> 100 µM,CN(C)CCn1c(=O)oc2ccc(NC(=O)N3CCCCCC3)cc21
15,> 100 µM and 85.4 µM,CC(=O)Nc1ccc2nc(-c3nccn3C[C@@H]3CCCO3)ccc2c1
16,> 100 µM,O=C(c1cncc(N2CCC3(CCCNC3)C2)n1)N1CCCC1 (centres undefined)
17,> 100 µM,CC(=O)N(Cc1noc(C)n1)C1CCN(Cc2cccc(C#N)c2)C1 (centres undefined)
18,> 100 µM,Cn1nccc1-c1ncc(-c2cc(C(=O)O)n(CC3CC3)c2)cn1
19,> 100 µM,Cn1nc2c(cc1=O)CN(Cc1nc(-c3ccccn3)no1)CC2
20,> 100 µM,COCCn1cc(-c2cc(C(=O)N3CCCC3)c3ccccn23)nc1C
21,30.3 µM and 25.3 µM,Cc1ccsc1C(=O)Nc1cc(Br)c(=O)n(C)c1
22,16.4 µM and 17.4 µM,Nc1cccnc1N1CCCCCC1

row,Structure (SMILES),IC50
1,CNCCc1nc2cc(F)ccc2[nH]1,47.9 µM and 34.8 µM
